Experimental data as given in ChEMBL document CHEMBL6087436, “The novel β-hairpin antimicrobial peptide D-G(RF)3 demonstrates exceptional antibacterial efficacy” (Eur J Med Chem, 2025).
Values after ≈ are worked out from the molar mass of the structure shown. Active and inactive are the calls of the source. No cut-off for these calls is given here.

Columns and labels:
[1] = Acute toxicity in male balb/c mouse assessed as lethal dose at ip administration; type: organism-based; details: in vivo
Pseudomonas aeruginosa [2] = test: Induction of drug resistance in Pseudomonas aeruginosa ATCC 27853 assessed as fold increase in MIC incubated for 24 hrs and measured under 40 passages; type: functional
Staphylococcus aureus [3] = test: Antibacterial activity against Staphylococcus aureus ATCC 25923 in presence of 150 mM NaCl; type: functional, organism-based
Staphylococcus aureus [4] = test: Antibacterial activity against Staphylococcus aureus ATCC 25923 in presence of 8 uM ZnCl2; type: functional, organism-based
Cell membrane [5] = test: Induction of cell membrane permeability in Escherichia coli assessed as bacterial breakage at 2 times MIC by SEM analysis; type: subcellular
Pseudomonas aeruginosa [6] = test: Antibacterial activity against Pseudomonas aeruginosa ATCC 27853 in presence of 4 uM FeCl3; type: functional, organism-based
Staphylococcus aureus [7] = test: Antibacterial activity against Staphylococcus aureus ATCC 25923 in presence of 6 uM NH4Cl; type: functional, organism-based
Escherichia coli [8] = test: Synergistic antibacterial activity against Escherichia coli assessed as fractional inhibitory concentration index in presence of rifampin incubated for 18 hrs by checkerboard method; type: functional
Cell membrane [9] = test: Induction of cell membrane permeability in Escherichia coli assessed as grooves shallower at 2 times MIC by SEM analysis; type: subcellular
Klebsiella pneumoniae [10] = test: In vivo antibacterial activity against Klebsiella pneumoniae ATCC 700603 infected in male Balb/c mouse lung infection model assessed as reduction in crumpling alveoli at 10 mg/kg, ip measured after 24 hrs by H and E staining based analysis; type: functional, organism-based
Escherichia coli [11] = test: Inhibition of biofilm formation in Escherichia coli ATCC 25922 at >= 2 uM incubated for 24 hrs by crystal violet staining based analysis; type: functional, organism-based
Escherichia coli [12] = test: Inhibition of biofilm formation in Escherichia coli ATCC 25922 incubated for 24 hrs by crystal violet staining based analysis; type: functional, organism-based; details: dose 1-32 µM
Klebsiella pneumoniae [13] = test: Synergistic antibacterial activity against Klebsiella pneumoniae assessed as fractional inhibitory concentration index in presence of kanamycin incubated for 18 hrs by checkerboard method; type: functional
Pseudomonas aeruginosa [14] = test: Antibacterial activity against Pseudomonas aeruginosa ATCC 27853 in presence of 150 mM NaCl; type: functional, organism-based
Pseudomonas aeruginosa [15] = test: Antibacterial activity against Pseudomonas aeruginosa ATCC 27853 in presence of 6 uM NH4Cl; type: functional, organism-based
Staphylococcus aureus [16] = test: Antibacterial activity against Staphylococcus aureus ATCC 25923 assessed as inhibition of bacterial growth incubated for 18 hrs by microbroth dilution assay; type: functional
Staphylococcus aureus [17] = test: Inhibition of biofilm formation in Staphylococcus aureus ATCC 25923 incubated for 24 hrs by crystal violet staining based analysis; type: functional, organism-based; details: dose 1-32 µM
Staphylococcus aureus [18] = test: Antibacterial activity against Staphylococcus aureus ATCC 25923 in presence of 4 uM FeCl3; type: functional, organism-based
Escherichia coli [19] = test: Antibacterial activity against Escherichia coli ATCC 25922 assessed as inhibition of bacterial growth incubated for 18 hrs by microbroth dilution assay; type: functional
Klebsiella pneumoniae [20] = test: In vivo antibacterial activity against Klebsiella pneumoniae ATCC 700603 infected in male Balb/c mouse lung infection model assessed as reduction in pulmonary bacterial load at 10 mg/kg, ip measured after 24 hrs (reference value: 3.05 x 10^9 CFU/g); type: functional
Klebsiella pneumoniae [21] = test: Antibacterial activity against Klebsiella pneumoniae ATCC 700603 assessed as inhibition of bacterial growth incubated for 18 hrs by microbroth dilution assay; type: functional
Klebsiella pneumoniae [22] = test: In vivo antibacterial activity against Klebsiella pneumoniae ATCC 700603 infected in male Balb/c mouse lung infection model assessed as reduction in serous exudation of alveolar cavities at 10 mg/kg, ip measured after 24 hrs by H and E staining based analysis; type: functional, organism-based
Pseudomonas aeruginosa [23] = test: Antibacterial activity against Pseudomonas aeruginosa ATCC 27853 in presence of 1 mM MgCl2; type: functional, organism-based
Klebsiella pneumoniae [24] = test: In vivo antibacterial activity against Klebsiella pneumoniae ATCC 700603 infected in male Balb/c mouse lung infection model assessed as reduction in pulmonary bacterial load at 5 mg/kg, ip measured after 24 hrs (reference value: 3.05 x 10^9 CFU/g); type: functional
Staphylococcus aureus [25] = test: Antibacterial activity against Staphylococcus aureus ATCC 25923 in presence of 2 mM CaCl2; type: functional, organism-based
Klebsiella pneumoniae [26] = test: Inhibition of biofilm formation in Klebsiella pneumoniae ATCC 700603 incubated for 24 hrs by crystal violet staining based analysis; type: functional, organism-based; details: dose 1-32 µM
Staphylococcus aureus [27] = test: Synergistic antibacterial activity against Staphylococcus aureus assessed as fractional inhibitory concentration index in presence of bacitracin incubated for 18 hrs by checkerboard method; type: functional
Cell membrane [28] = test: Induction of cell membrane permeability in Escherichia coli assessed as cluster formation at 2 times MIC by SEM analysis; type: subcellular
Bacillus subtilis = test: Antibacterial activity against Bacillus subtilis ATCC 23857 assessed as inhibition of bacterial growth incubated for 18 hrs by microbroth dilution assay; type: functional
Klebsiella pneumoniae [29] = test: Inhibition of biofilm formation in Klebsiella pneumoniae ATCC 700603 at 1 uM incubated for 24 hrs by crystal violet staining based analysis; type: functional, organism-based
Pseudomonas aeruginosa [30] = test: Synergistic antibacterial activity against Pseudomonas aeruginosa assessed as fractional inhibitory concentration index in presence of rifampin incubated for 18 hrs by checkerboard method; type: functional
[31] = Stability of compound in mouse plasma assessed as degradation of compound by measuring half life incubated for 48 hrs by RP-HPLC analysis; type: ADME, cell-free
Staphylococcus aureus [32] = test: Antibacterial activity against Staphylococcus aureus ATCC 25923 in presence of 1 mM MgCl2; type: functional, organism-based
Cell membrane [33] = test: Induction of Outer membrane permeabilization in Escherichia coli assessed as increase in fluorescence intensity incubated for 1 min by NPN-dye based fluorescence analysis; type: subcellular
Pseudomonas aeruginosa [34] = test: Synergistic antibacterial activity against Pseudomonas aeruginosa assessed as fractional inhibitory concentration index in presence of imipenem incubated for 18 hrs by checkerboard method; type: functional
[35] = Hemolytic activity in Kunming mouse erythrocytes assessed as hemolytic rate at 256 uM incubated for 1 hr by multimode reader analysis relative to control; type: toxicity, cell-based, Erythrocyte; details: read-out: Activity
Pseudomonas aeruginosa [36] = test: Inhibition of biofilm formation in Pseudomonas aeruginosa ATCC 27853 incubated for 24 hrs by crystal violet staining based analysis; type: functional, organism-based; details: dose 1-32 µM
[37] = tested on: Staphylococcus epidermidis; test: Antibacterial activity against Staphylococcus epidermidis ATCC 12228 assessed as inhibition of bacterial growth incubated for 18 hrs by microbroth dilution assay; type: functional
Cell membrane [38] = test: Induction of Inner membrane permeabilization in Escherichia coli ML-35 ATCC […] measured every 5 mins for 120 mins by ONPG dye based assay; type: subcellular
Klebsiella pneumoniae [39] = test: Synergistic antibacterial activity against Klebsiella pneumoniae assessed as fractional inhibitory concentration index in presence of polymyxin B incubated for 18 hrs by checkerboard method; type: functional
Pseudomonas aeruginosa [40] = test: Antibacterial activity against Pseudomonas aeruginosa ATCC 27853 in presence of 4.5 mM KCl; type: functional, organism-based
Staphylococcus aureus [41] = test: Antibacterial activity against Staphylococcus aureus ATCC 25923 in presence of 4.5 mM KCl; type: functional, organism-based
Cell membrane [42] = test: Induction of Cytoplasmic membrane depolarization in Staphylococcus aureus measured for every 10 mins by DiSC3(5) dye based fluorescence method
Klebsiella pneumoniae [43] = test: Synergistic antibacterial activity against Klebsiella pneumoniae assessed as fractional inhibitory concentration index in presence of rifampin incubated for 18 hrs by checkerboard method; type: functional
[44] = Retention time of the compound by RP-HPLC analysis; type: physicochemical

SMILES: N=C(N)NCCC[C@@H](NC(=O)CNC(=O)[C@H]1CCCN1C(=O)[C@@H](CCCNC(=N)N)NC(=O)[C@@H](Cc1ccccc1)NC(=O)[C@@H](CCCNC(=N)N)NC(=O)[C@@H](Cc1ccccc1)NC(=O)[C@@H](CCCNC(=N)N)NC(=O)[C@H](N)Cc1ccccc1)C(=O)N[C@H](Cc1ccccc1)C(=O)N[C@H](CCCNC(=N)N)C(=O)N[C@H](Cc1ccccc1)C(=O)N[C@H](CCCNC(=N)N)C(=O)N[C@H](Cc1ccccc1)C(N)=O
- LD50 [1]: 45.3 mg/kg
- fold change (FC) (Pseudomonas aeruginosa [2]): <4
- Activity (Staphylococcus aureus [3]): Active
- Activity (Staphylococcus aureus [4]): Active
- Activity (Cell membrane [5]): Active
- Activity (Pseudomonas aeruginosa [6]): Active
- Activity (Staphylococcus aureus [7]): Active
- fractional inhibitory concentration index (FICI) (Escherichia coli [8]): 0.25
- Activity (Cell membrane [9]): Active
- Activity (Klebsiella pneumoniae [10]): Active
- inhibition (Escherichia coli [11]): Active
- inhibition (Escherichia coli [12]): Dose-dependent-effect
- fractional inhibitory concentration index (FICI) (Klebsiella pneumoniae [13]): 0.375
- Activity (Pseudomonas aeruginosa [14]): Active
- Activity (Pseudomonas aeruginosa [15]): Active
- MIC (Staphylococcus aureus [16]): 4 µM (≈ 7.97 µg/mL)
- inhibition (Staphylococcus aureus [17]): Dose-dependent-effect
- Activity (Staphylococcus aureus [18]): Active
- MIC (Escherichia coli [19]): 8 µM (≈ 15.9 µg/mL)
- Activity (Klebsiella pneumoniae [20]): 2.48 10^7CFU/g
- MIC (Klebsiella pneumoniae [21]): 8 µM (≈ 15.9 µg/mL)
- Activity (Klebsiella pneumoniae [22]): Active
- Activity (Pseudomonas aeruginosa [23]): Active
- Activity (Klebsiella pneumoniae [24]): 5.98 10^7CFU/g
- Activity (Staphylococcus aureus [25]): Active
- inhibition (Klebsiella pneumoniae [26]): Dose-dependent-effect
- fractional inhibitory concentration index (FICI) (Staphylococcus aureus [27]): 0.375
- Activity (Cell membrane [28]): Active
- MIC (Bacillus subtilis): 2 µM (≈ 3.98 µg/mL)
- inhibition (Klebsiella pneumoniae [29]): Active; Less Effective Than Polymyxin B
- fractional inhibitory concentration index (FICI) (Pseudomonas aeruginosa [30]): 0.313
- half-life [31]: > 48 h
- Activity (Staphylococcus aureus [32]): Active
- Activity (Cell membrane [33]): Active
- fractional inhibitory concentration index (FICI) (Pseudomonas aeruginosa [34]): 0.375
- hemolysis at 1 h, 256 µM [35]: 4.3%
- inhibition (Pseudomonas aeruginosa [36]): Dose-dependent-effect
- MIC [37]: 2 µM (≈ 3.98 µg/mL)
- Activity (Cell membrane [38]): Dose-dependent-effect
- fractional inhibitory concentration index (FICI) (Klebsiella pneumoniae [39]): 0.188
- Activity (Pseudomonas aeruginosa [40]): Active
- Activity (Staphylococcus aureus [41]): Active
- Activity (Cell membrane [42]): Dose-dependent-effect
- fractional inhibitory concentration index (FICI) (Klebsiella pneumoniae [43]): 0.313
- Retention_time [44]: 14.438 min

SMILES: N=C(N)NCCC[C@H](NC(=O)CNC(=O)[C@H]1CCCN1C(=O)[C@H](CCCNC(=N)N)NC(=O)[C@H](Cc1ccccc1)NC(=O)[C@H](CCCNC(=N)N)NC(=O)[C@H](Cc1ccccc1)NC(=O)[C@H](CCCNC(=N)N)NC(=O)[C@@H](N)Cc1ccccc1)C(=O)N[C@@H](Cc1ccccc1)C(=O)N[C@@H](CCCNC(=N)N)C(=O)N[C@@H](Cc1ccccc1)C(=O)N[C@@H](CCCNC(=N)N)C(=O)N[C@@H](Cc1ccccc1)C(N)=O
- LD50 [1]: 81.3 mg/kg
- fold change (FC) (Pseudomonas aeruginosa [2]): <4
- Activity (Staphylococcus aureus [3]): Active
- Activity (Staphylococcus aureus [4]): Active
- Activity (Cell membrane [5]): Active
- Activity (Pseudomonas aeruginosa [6]): Active
- Activity (Staphylococcus aureus [7]): Active
- fractional inhibitory concentration index (FICI) (Escherichia coli [8]): 0.313
- Activity (Cell membrane [9]): Active
- Activity (Klebsiella pneumoniae [10]): Active
- inhibition (Escherichia coli [11]): Active
- inhibition (Escherichia coli [12]): Dose-dependent-effect
- fractional inhibitory concentration index (FICI) (Klebsiella pneumoniae [13]): 0.313
- Activity (Pseudomonas aeruginosa [14]): Active
- Activity (Pseudomonas aeruginosa [15]): Active
- MIC (Staphylococcus aureus [16]): 4 µM (≈ 7.97 µg/mL)
- inhibition (Staphylococcus aureus [17]): Dose-dependent-effect
- Activity (Staphylococcus aureus [18]): Active
- MIC (Escherichia coli [19]): 4 µM (≈ 7.97 µg/mL)
- Activity (Klebsiella pneumoniae [20]): 4.93 10^7CFU/g
- MIC (Klebsiella pneumoniae [21]): 8 µM (≈ 15.9 µg/mL)
- Activity (Klebsiella pneumoniae [22]): Active
- Activity (Pseudomonas aeruginosa [23]): Active
- Activity (Klebsiella pneumoniae [24]): 1.52 10^8CFU/g
- Activity (Staphylococcus aureus [25]): Active
- inhibition (Klebsiella pneumoniae [26]): Dose-dependent-effect
- fractional inhibitory concentration index (FICI) (Staphylococcus aureus [27]): 0.375
- Activity (Cell membrane [28]): Active
- MIC (Bacillus subtilis): 4 µM (≈ 7.97 µg/mL)
- inhibition (Klebsiella pneumoniae [29]): Active; Less Effective Than Polymyxin B
- fractional inhibitory concentration index (FICI) (Pseudomonas aeruginosa [30]): 0.313
- half-life [31]: 3.03 h
- Activity (Staphylococcus aureus [32]): Active
- Activity (Cell membrane [33]): Active
- fractional inhibitory concentration index (FICI) (Pseudomonas aeruginosa [34]): 0.313
- hemolysis at 1 h, 256 µM [35]: 9.7%
- inhibition (Pseudomonas aeruginosa [36]): Dose-dependent-effect
- MIC [37]: 2 µM (≈ 3.98 µg/mL)
- Activity (Cell membrane [38]): Dose-dependent-effect
- fractional inhibitory concentration index (FICI) (Klebsiella pneumoniae [39]): 0.188
- Activity (Pseudomonas aeruginosa [40]): Active
- Activity (Staphylococcus aureus [41]): Active
- Activity (Cell membrane [42]): Dose-dependent-effect
- fractional inhibitory concentration index (FICI) (Klebsiella pneumoniae [43]): 0.313
- Retention_time [44]: 14.433 min
